Measurements reported in patent US20190248834A1, “ENDOMORPHIN-2, TETRAPEPTIDE DERIVATIVES THEREOF, AND USES THEREOF” (priority 2016, published 2019).
Non-standard residues stand in square brackets, D forms with d. pGlu = O=C1CC[C@@H](C(=O)O)N1

Legend:
Assay type in all cases: in vivo, human
severe migraine = test: Example 12: analgesic effect on severe migraine headache, topical; settings: 1% (w/v) in WEP442, topical
Method: One day, at approximately 8 AM, visual aura and pain in the frontal scalp, forehead and frontal sinuses began and became very severe within 5-10 minutes. Thereafter, the subject topically applied a composition containing 1% (w/v) N-Ac-Tyr-Pro-Phe-Phe-NH2(SEQ ID NO: 23) in WEP442 to the involved area. […] Three (3) days later they remained free of any migraine headache and symptoms.

[1] = test system: very severe headaches with nausea and vomiting; test: Example 24: analgesic effect on severe headaches, topical
Text: A subject had very severe headaches and associated nausea and vomiting, which occurred 1-2 times weekly. […] Over this interval, the frequency of headaches decreased to every 7-10 days, and the intensity of pain at the onset of each episode was diminished.

[2] = test system: dental pain after filling; test: Example 27: analgesic effect on dental pain, applied to tooth and gum
Method: A subject, experienced substantial pain in an upper left retro-molar that started 3 hours after having a dental filling procedure done on the tooth. The pain became more intense over the ensuing hours, at which time they applied to the tooth and gum using a cotton tipped applicator a composition containing 1% (w/v) of N-Ac-Tyr-Pro-Phe-Phe-NH2 (SEQ ID NO: 23) in WEP442. […] Re-application of the composition provided the same relief for the same duration.

knee pain = test: Example 32: analgesic effect on knee pain after housework, topical; settings: 1% (w/v) in WEP442, topical
Text: A subject with discomforting knee pain in the evening after cleaning their own house for several hours topically applied a composition containing 1% (w/v) of N-Ac-Tyr-Pro-Phe-Phe-NH2 (SEQ ID NO: 23) in WEP442.

TMJ syndrome pain = test: Example 41: analgesic effect on TMJ pain, topical; settings: 0.5% (w/v) in WEP442, topical
Text: The same subject, also suffered pain from TMJ syndrome involving the left side joint for about 6 years. Attempts to alleviate the pain, e.g. cushioning mouth pieces worn during the night, failed. […] Increasing longer periods of relief have occurred over 5-6 weeks. They have reported that there was no more pain in the affected joint over a period of about one month.

[3] = test system: psoriatic arthritis of the fingers; test: Example 79: analgesic effect on psoriatic arthritis, topical; settings: 0.5% (w/v) in WEP442, topical once daily
Text: A subject, presented with psoriatic arthritis of the fingers that was particularly painful in the right index finger joint and proximal joint of the left thumb.

[4] = test system: back neck pain after cervical implant; test: Example 90: analgesic effect on post-surgery pain and discomfort, topical; settings: 1% (w/v) in WEP442, topical
Text: A subject had painful discomfort of their back neck for 2 years caused by a surgical titanium implant of the 7th cervical vertebra 2 years earlier. During the past years, the pain and discomfort had been improved from occasional treatments with acupuncture and massage therapy. However, such treatments provided only short term relief of pain and discomfort, usually one or two pain free days after each treatment.
On one afternoon, pain and discomfort suddenly developed. The subject topically applied a composition containing 1% (w/v) of N-Ac-Tyr-Pro-Phe-Phe-NH2 (SEQ ID NO: 23) in WEP442 solution to skin of their back neck area. […] The subject was free of pain and discomfort for at least 12 hours (4+ effect).

[5] = test system: osteoarthritis of the knees; test: Example 94: osteoarthritic knees, intra-articular injection of N-Ac derivative; settings: approximately 1% (w/v) in water, 1 ml per knee intra-articular
Method: A subject with osteoarthritis of the knees that progressively worsened over the years, evaluated the analgesic effectiveness of many topical preparations of tetrapeptide derivatives of the invention on numerous occasion. After such experiences, they decided to self-inject […] knees with a sterile aqueous preparation of N-Ac-Tyr-Pro-Phe-Phe-NH2, (SEQ ID NO: 23) at a concentration of approximately 1% (w/v) in water. Via the sub-patellar route, each knee was injected with 1 ml of the preparation, containing approximately 10 mg of the tetrapeptide . […] Walking about with the use of a wheeled walker at that time, the subject experienced knee pain, but at a level distinctly lower than earlier days before the injection. This degree of substantially diminished knee pain continued for an additional 16 hours when the return of pain was detected (3+ effect).

[6] = test system: knee pain, bulging meniscus; test: Example 65: analgesic effect on pain from bulging sub-patellar meniscus, topical; settings: 0.6% (w/v) in WEP442, topical
Text: A landscape worker slipped on the grass and twisted their right knee, which became too painful for them to walk on without physical support. […] Surgical corrective procedures were scheduled for 2 weeks later. In the meantime, topical applications of the above solution as needed allowed them to move about with no discomfort.

stress headaches = test: Example 69: analgesic effect on repeating stress headaches, topical; settings: 0.5% (w/v) in WEP442, topical, 5-6 headaches over 3 weeks
Text: A person had repeated stress headaches for several months. Such headaches had been relieved, or partially relieved, by over-the-counter medication.

restless leg syndrome = test: Example 75: treatment of restless leg syndrome, topical; settings: 1% (w/v) in WEP442, topical to legs after an episode
Text: Restless leg syndrome (RLS) is a disorder in which involuntary movements of the legs occur during the sleeping hours. A subject, presented with RLS for a duration of about 4 years. The disorder in the subject had not responded to therapy with opiates, nor to a benzodiazepine medication.

right shoulder pain = test: Example 77: analgesic effect on pain from shoulder strain, topical; settings: 0.5% (w/v) in WEP442, topical
Method: A subject, presented with right shoulder pain for a duration of 5 days, which developed after carrying a very heavy grocery bag for several city blocks. The pain was increased by their attempts to lift their arm to an elevated position, and further increased from rotational arm movements. […] Such relief lasted for about 6 hours, at which time re-application provided the same relief.

CC(=O)N[C@@H](Cc1ccc(O)cc1)C(=O)N1CCC[C@H]1C(=O)N[C@@H](Cc1ccccc1)C(=O)N[C@@H](Cc1ccccc1)C(N)=O [N-Ac-Tyr-Pro-Phe-Phe-NH2]
relief of migraine pain and all other symptoms (severe migraine): suddenly disappeared completely | time free of migraine headache and symptoms (severe migraine): ≥ 3 days | time to pain relief (severe migraine): 6 to 7 min | frequency of headaches (interval between headaches) ([1]; 1% (w/v) in WEP442, repeated uses over 3 months, before: 1-2 times weekly): 7 to 10 days | time to pain relief ([1]; 1% (w/v) in WEP442, topical): 3 to 4 min | pain relief ([1]; 1% (w/v) in WEP442, topical at onset of symptoms): completely relieve pain and any associated symptoms | duration of pain relief ([2]; 1% (w/v) in WEP442): about 3 hours | time to pain relief ([2]; 1% (w/v) in WEP442): ≤ 1 min | pain relief ([2]; 1% (w/v) in WEP442, applied to tooth and gum): pain ceased completely | duration of pain relief (knee pain): 5 to 7 h | pain relief (knee pain): Total relief of pain | time to pain relief (knee pain): ≤ 1 min | duration of pain relief (TMJ syndrome pain): more than 8 hours | pain relief (TMJ syndrome pain): rapidly and completely alleviated pain | duration of pain relief [3]: 8 h | pain relief [3]: complete relief of pain | analgesic effect grade [4]: 4+ (4+ (90-100%): complete relief or eradication of pain for more than 4 hours) | duration free of pain and discomfort [4]: at least 12 hours | pain relief [4]: the pain and discomfort disappeared | time to pain relief [4]: about 5 minutes | analgesic effect grade [5]: 3+ (3+ (75%): complete relief of pain for less than 4 hours) | discomfort from the injection [5]: Mild discomfort from the injection | additional duration of substantially diminished knee pain ([5]; after the first 24 hours): 16 h | knee pain ([5]; over the ensuing 24 hours): the knee pain gradually diminished

N-Pg-Tyr-Pro-Phe-Phe-NH2 ([pGlu]YPFF-NH2; SMILES NC(=O)[C@H](Cc1ccccc1)NC(=O)[C@H](Cc1ccccc1)NC(=O)[C@@H]1CCCN1C(=O)[C@H](Cc1ccc(O)cc1)NC(=O)[C@@H]1CCC(=O)N1)
duration of pain relief [6]: lasted throughout the working day | pain relief [6]: complete relief of pain | time to pain relief [6]: 3 to 4 min | headache relief (stress headaches): completely relieved almost immediately | involuntary leg movement (restless leg syndrome): completely prevented further involuntary leg movement | duration of pain relief (right shoulder pain): about 6 hours | pain relief (right shoulder pain): rapid, complete relief of pain
